Read-outs that look alike come from different tables or passages of the source.
Key:
[1] = Equilibrium solubility in simulated intestinal fluid, dual level DoE, fasted arm; format: physicochemical; settings: for statistical significance of DoE factor BS:PL on equilibrium solubility / statistical significance of DoE factor bile salt on equilibrium solubility / statistical significance of DoE factor cholesterol on equilibrium solubility / statistical significance of DoE factor lecithin on equilibrium solubility / statistical significance of DoE factor monoglyceride on equilibrium solubility / statistical significance of DoE factor pH on equilibrium solubility / statistical significance of DoE factor sodium oleate on equilibrium solubility: fasted, current study (Figure 3)
Description: (§1) For each media parameter (bile salt, lecithin, sodium oleate, monoglyceride, cholesterol, pH and BS: PL ratio) lower and upper limit concentration values for fasted and fed states were defined, Table 1. Using Minitab 17.2.1 and a custom experimental design, a 1/16 of the full factorial DoE with the seven factors and two levels (lower and upper limits) was constructed (8 experiments around the upper and lower levels plus two center points) separately for the fasted and the fed states. These two tables were then applied as an input for a factorial custom design of experiment which combined the fasted and fed using all 20 data points to provide an overall analysis. The study therefore consists of three arms, two smaller (10 data point) fasted and fed arms, which are then merged into a larger (20 data point) combined arm.
(§2) When designing and analyzing the DoE, only a factor’s main effects and 2 way interactions have been considered and 3 way interactions or more were not included. For each DoE the magnitude for each factor’s effect on equilibrium solubility was determined by the standardized effect value for all of the individual factors and the significant 2-way interactions. This value was used to articulate whether these factors are increasing or decreasing drug solubility.
(§3) The solution was prepared by the addition of an excess amount (above the estimated solubility) of solid for each compound investigated to a centrifuge tube (15 mL Corning Centristar cap, polypropylene RNase/DNase free, nonpyrogenic) followed by the addition of each component of the simulated intestinal fluid media according to the run order generated by the DoE. After all of the media components were added, pH was adjusted to 5, 6, or 7 according to the run order using 0.1 M HCl or 0.1 M KOH and tubes were capped and placed on an orbital shaker (OS 5 basic Yellowline, IKA, Germany) for 1 h after which the pH was readjusted if required. The 20 different tubes were then shaken in a tube rotator for 24 h at 40 rpm at 37 °C to simulate intestinal fluid conditions. After 24 h, a 1 mL amount was taken from each of the 20 tubes and transferred to a 1.5 mL Eppendorf tube then centrifuged at 15 000 rpm for 5 min. Following centrifugation 0.5 mL of the supernatant solution was transferred to an HPLC vial to analyze drug solubility using HPLC (Table 4).

[2] = cited from earlier work
[3] = Equilibrium solubility in simulated intestinal fluid, dual level DoE, combined fasted and fed arm; format: physicochemical; settings: for variability of equilibrium solubility: across DoE media, fasted or fed arm, Figures 1 and 2; for significant two way factor interactions on solubility: eight two way interactions, Figure 4
Description: as §1, §2, §3

[4] = Equilibrium solubility in simulated intestinal fluid, dual level DoE, fed arm; format: physicochemical; settings: fed, current study (Figure 3)
Description: as §1, §2, §3

[5] = Statistical comparison of equilibrium solubility data sets (Mann-Whitney test / two-sample t-test); format: physicochemical; settings: for statistical comparison of fasted against fed equilibrium solubility: current dual level DoE, where significant, fasted solubility lower than fed; for statistical comparison of dual level fasted with published fasted equilibrium solubility: current fasted arm vs published fasted DoE
Description: The Kolmogorov normality test was used in Minitab to assess the normality distribution of each data set. A Mann–Whitney test was used to evaluate the median between two data sets (not normally distributed) and the two-sample t-test was used to evaluate the mean of two data sets (normally distributed).

[6] = set-up: method as in ref 13, Figure 2; settings: fasted, published; Figure 2; cited from earlier work
[7] = set-up: method as in ref 14, Figure 2; settings: fed, published; Figure 2; cited from earlier work

SMILES | statistical significance of DoE factor BS:PL on equilibrium solubility [1] | statistical significance of DoE factor bile salt on equilibrium solubility [1] | statistical significance of DoE factor cholesterol on equilibrium solubility [1] | statistical significance of DoE factor lecithin on equilibrium solubility [1] | statistical significance of DoE factor monoglyceride on equilibrium solubility [1] | statistical significance of DoE factor pH on equilibrium solubility [1] | statistical significance of DoE factor sodium oleate on equilibrium solubility [1] | statistical significance of DoE factor BS:PL on equilibrium solubility [4] | statistical significance of DoE factor bile salt on equilibrium solubility [4] | statistical significance of DoE factor cholesterol on equilibrium solubility [4] | statistical significance of DoE factor lecithin on equilibrium solubility [4] | statistical significance of DoE factor monoglyceride on equilibrium solubility [4] | statistical significance of DoE factor pH on equilibrium solubility [4] | statistical significance of DoE factor sodium oleate on equilibrium solubility [4] | statistical comparison of fasted against fed equilibrium solubility [5] | statistical comparison of dual level fasted with published fasted equilibrium solubility [5] | statistical significance of DoE factor bile salt on equilibrium solubility [6] | statistical significance of DoE factor lecithin on equilibrium solubility [6] | statistical significance of DoE factor pH on equilibrium solubility [6] | statistical significance of DoE factor sodium oleate on equilibrium solubility [6] | also measured
O=C1NC(=O)C(c2ccccc2)(c2ccccc2)N1 [phenytoin] | S ^d | NS ^e ^g | S ^d | NS ^e ^g | NS ^e | S ^d | S ^d | NS ^e | NS ^e ^g | NS ^e | NS ^e | NS ^e ^g | NS ^e ^g | NS ^e ^g | no statistically significant difference | significantly different | S ^d ^g | S ^d ^g | S ^d | S ^d | direction of pH effect on solubility (standardized effect) ([1]; fasted and fed study arms, Figure 3): negative effect; direction of cholesterol effect on solubility (standardized effect) ([1]; fasted arm, Figure 3): significant negative solubility effect; pKa ([2]; no reference given): 8.1; variability of equilibrium solubility [3]: low solubility variability; significant DoE factors influencing solubility ([3]; combined arm (seven possible factors per drug), significance ±2): no significant factors; significant two way factor interactions on solubility ([3]; combined arm): significant interactions; statistical comparison of dual level fed with published fed equilibrium solubility ([5]; current fed arm vs published fed DoE): significantly different; statistical significance of DoE factor bile salt on equilibrium solubility [7]: S ^d ^g; statistical significance of DoE factor lecithin on equilibrium solubility [7]: NS ^e; statistical significance of DoE factor monoglyceride on equilibrium solubility [7]: S ^d ^g; statistical significance of DoE factor pH on equilibrium solubility [7]: S ^d ^g; statistical significance of DoE factor sodium oleate on equilibrium solubility [7]: S ^d ^g
CC(C)(Sc1cc(C(C)(C)C)c(O)c(C(C)(C)C)c1)Sc1cc(C(C)(C)C)c(O)c(C(C)(C)C)c1 [probucol] | S ^d | NS ^e | NS ^e | NS ^e | NS ^e | NS ^e ^g | S ^d | NS ^e | NS ^e ^g | NS ^e | NS ^e ^g | NS ^e ^g | NS ^e ^g | S ^d ^g | no statistically significant difference | significantly different | NS ^e | NS ^e | S ^d ^g | S ^d | variability of equilibrium solubility [3]: large variability; significant two way factor interactions on solubility ([3]; combined arm): significant interactions; statistical significance of DoE factor bile salt on equilibrium solubility [7]: S ^d ^g; statistical significance of DoE factor lecithin on equilibrium solubility [7]: S ^d ^g; statistical significance of DoE factor monoglyceride on equilibrium solubility [7]: S ^d ^g; statistical significance of DoE factor pH on equilibrium solubility [7]: S ^d ^g
CN1CC(=O)N2[C@H](c3ccc4c(c3)OCO4)c3[nH]c4ccccc4c3C[C@@H]2C1=O [tadalafil] | NS ^e | NS ^e ^g | NS ^e | NS ^e ^g | NS ^e | NS ^e ^g | NS ^e ^g | NS ^e | NS ^e ^g | NS ^e | NS ^e | NS ^e | NS ^e | NS ^e ^g | significant difference | significantly different | S ^d ^g | S ^d ^g | S ^d ^g | S ^d ^g | significant DoE factors influencing solubility ([1]; fasted and fed study arms together (14 possible values per drug), significance ±4): no significant factors; pKa ([2]; reported): 15; significance of sodium oleate for solubility ([3]; combined arm, Figure 4, significance ±2, positive solubility impact): significant; statistical significance of DoE factor bile salt on equilibrium solubility [7]: S ^d ^g; statistical significance of DoE factor lecithin on equilibrium solubility [7]: NS ^e; statistical significance of DoE factor monoglyceride on equilibrium solubility [7]: NS ^e; statistical significance of DoE factor pH on equilibrium solubility [7]: NS ^e; statistical significance of DoE factor sodium oleate on equilibrium solubility [7]: S ^d ^g

Reference: publication PMC5735376, “Dual Level Statistical Investigation of Equilibrium Solubility in Simulated Fasted and Fed Intestinal Fluid” (Molecular Pharmaceutics, 2017)
